Reference: patent US20210017607A1, “Methods of Predicting Responsiveness to Cancer Therapies” (The University of Chicago, priority 2019, published 2021)

System: Myc-CAP-PTEN^−/− cells
Experiment: Myc-CAP-PTEN−/− cells in vitro (western blotting, cytokine array)
Assay type: cell-based, mouse
Settings: 24 hours
Experimental: FIGS. 35A-35D. […] (35A) Myc-CAP-PTEN^−/− cells were treated with copanlisib […] (IC90 concentration) in vitro for 24 hours, and protein extracts were harvested for western blotting analysis with the indicated antibodies to analyze PI3K activation. (35B) Supernatants from (35A) were harvested for cytokine array profiling. n=3 independent in vitro experiments. (35C) Mice bearing Myc-CAP-PTEN^−/− established syngeneic tumors (200 mm^3) were treated with copanlisib (14 mg/kg, every other day, until tumors reached 2000 mm^3). Tumor volumes were monitored daily and graphed. (35D) At the end of treatment, tumors were analyzed by flow cytometry for tumor infiltrating immune cell subsets. n=5 mice per group.
FIGS. 49A and 49B. PTEN-deficient cancer cells have diminished STING expression that can be restored by […] and pan-PI3K inhibitors. (49A) Isogenic MC38, Myc-CAP, ID8, and TRAMP cells (−/+ PTEN) were analyzed for STING mRNA and protein expression by qRT-PCR and western blotting, respectively. (49B) Myc-CAP-PTEN^−/− cells were treated with GSK′771 (PI3Kβ-selective inhibitor, 1 μM) or BKM120 (pan-PI3K inhibitor, 1 μM) for 24 hours, and proteins were analyzed for STING expression and PI3K activation by western blotting.
Cancer Cell Lines and in vitro drug treatments. Transgenic c-myc^hi prostate tumor derived cell line, Myc-CAP and TRAMPC1, ovarian cancer cell line ID8 and murine colon adenocarcinoma line MC38 were obtained from the American Type Culture Collection (ATCC) and passaged in either 1×RPMI/1×DMEM (with phenol) or 1×DMEM (without phenol red) containing 10% fetal bovine serum, 1% penicillin-streptomycin, 2% L-glutamine and 1×ITS. ID8^pten−/−p53−/−cells were a kind gift from Dr. Ian McNeish (Imperial College, London). For generation of STING over expressing cell lines −Myc-CAP^pten+/+ and ID8^pten−/− cells were transfected with commercial available plasmid (DC-Mm22462-SH02, Genecoepia™), sorted and expanded as per protocol. […]

SMILES | CXCL1 production (copanlisib 100 nm, cytokine array) | STING expression (western blotting) (1 μM)
COc1c(OCCCN2CCOCC2)ccc2c1N=C(NC(=O)c1cnc(N)nc1)N1CCN=C21 [copanlisib] | decreasing CXCL1 production | 
Nc1cc(C(F)(F)F)c(-c2cc(N3CCOCC3)nc(N3CCOCC3)n2)cn1 [buparlisib] |  | restored
